Patent publication US20240117303A1, “METHODS AND COMPOSITIONS FOR GENERATING HUMAN MIDBRAIN DOPAMINERGIC NEURONS FROM NEURAL PROGENITOR CELLS” (Trailhead Biosystems Inc., priority 2022, published 2024)
“And” between values parts separate entries of the source, which are not always exact repeats. Identical values can stand only once. “Also recorded” adds a separate entry of the source.

Assays:
stage 3 immature neurons = experiment: HD-DoE 8-factor experiment for stage 4 recipe (FIG. 27, 28, 31); assay type: cell-based, human; settings: for impact on expression of NR4A2: 8-factor model / dynamic profile; for expression level of PITX3 in absence of the factor / expression level of NR4A2 in absence of the factor: stage 4 recipe, other factors present; for expression level of PITX3 in absence of the factor: 40 with all factors; for expression level of NR4A2 in absence of the factor: 400 with all factors
Description: To further differentiate the cells to a mature neuronal identity, additional HD-DoE experiments were performed on the cells that were cultured in stage 1, stage 2 and stage 3 differentiation media. After 4 days, gene expression of cells in different combinatorial conditions were investigated. At this time, we focused on maximal expression of more mature dopaminergic genes such as NR4A2, PITX3 and TH (Tiklová et al. (2020) Nat Commun. 11:2434; Fiorenzano et al. (2021) Nat Commun., 12:7302). In one model, cells were treated with a combinatorial matrix with eight inputs including CHIR99021, BDNF, GDNF, Rosiglitazone, GW7647, DBZ and heparin.
(§1) To assess the impact of elimination of each validated factor identified in Example 5 for the stage 3 and stage 4 recipes, we used dynamic profile analysis and compared the expression level of genes of interest in absence of each finalized factor while others are present.
In the stage 4 recipe, each of six finalized factors were excluded while other factors were present and the expression levels of NR4A2 and PITX3 were assessed compared to the presence of all factors.

[1] = tested on: stage 1 neural stem cells; experiment: HD-DoE 12-factor experiment for stage 2 recipe (second model, FIG. 8-10, 13); assay type: cell-based, human; settings: for impact on GBX2 / impact on expression of FOXA2 / impact on expression of LMX1A: dynamic profile, 12 effectors; for level of FOXA2 in absence of the factor / level of LMX1A in absence of the factor: stage 2 recipe, second experiment model; for level of LMX1A in absence of the factor: 4000 with all factors
Description: To test additional factors like FGF8 that is routinely used in midbrain differentiation protocols, we ran another 12-factor experiment consisting of LDN193189, BMP7, A 83-01, Activin A, Takinib, PD0325901, MK2206, FGF8b, AZD3147, MHY1485, GSI-XX and Yhhu 3792. Similar to the previous experiment, hiPSCs were treated with stage 1 media for 3 days and then treated with 96 conditions of combinations of the factors for an additional 3 days. When this model was optimized for maximum expression of FOXA2, BMP7 with factor contribution of 13.7 and MK2206 with 14.2 had the most impact on its expression followed by AZD 3147 with factor contribution of 10.9.
(§2) To assess the impact of elimination of each validated factor, we used dynamic profile analysis and compared the expression level of genes of interest in absence of each finalized factor while others are present.
(§3) In the stage 2 recipe, each of the six finalized factors were removed while the other five factors were present and the expression levels of FOXA2, LMX1A and GBX2 were assessed, compared to the levels in the presence of all factors. According to the first experiment model, the absence of TTNPB lead to a rise of GBX2 expression, while the value of FOXA2 and LMX1A reduced drastically from 10,000 to 0 and 30,000 to 15,000, respectively. The absence of A 83-01 reduced the expression of FOXA2 from 10,000 to 7000, however, as expected, the value of LMX1A increased from 30,000 to 40,000. […] According to the second experiment model, the absence of BMP7 and MK2206 both reduced the level of FOXA2 while increasing the value of LMX1A, with BMP7 as the main effector that led to 0 expression of FOXA2.

[2] = tested on: stage 1 neural stem cells; experiment: HD-DoE 12-factor experiment for stage 2 recipe (first model, FIG. 5-7, 12); assay type: cell-based, human; settings: dynamic profile / model, 12 effectors
Description: To further guide the differentiation of midbrain-committed neural stem cells to neural progenitor cells at stage 2, we performed an additional HD-DoE experiment. We thereby obtained additional gene regulatory models that were used for preparation of differentiation protocol. The basis of this was a 12-factor HD-DoE experiment with focus on initiation of differentiation of cells toward midbrain neural progenitor cells for an additional 3 days after termination of stage 1 treatment. Here, we focused on expression of LMX1A and FOXA2 in neural progenitor cells with low to zero expression of GBX2. LMX1A had significant high expression level in the model with value of 47888. Therefore, we used optimization setting for this gene to identify the positive factors. The factors in this experiment included SC79, MK2206, ZM336372, PD0325901, CHIR99021, A 83-01, TTNPB, AGN193109, GW3965, SR9243, Purmorphamine and GSI-XX.
as §2, §3

[3] = tested on: human pluripotent stem cells; experiment: HD-DoE 13-factor experiment for stage 1 recipe, gene expression modeled after 3-day treatment; dynamic profile and factor criticality analysis; assay type: cell-based
Description: This example utilizes a method of High-Dimensional Design of Experiments (HD-DoE), as previously described in Bukys et al. (2020) Iscience 23:101346. The method employs computerized design geometries to simultaneously test multiple process inputs and offers mathematical modeling of a deep effector/response space. The method allows for finding combinatorial signaling inputs that control a complex process, such as during cell differentiation. It allows testing of multiple plausible critical process parameters, as such parameters impact output responses, such as gene expression. Because gene expression provides hallmark features of the phenotype of, for example, a human cell, the method can be applied to identify, and understand, which signaling pathways control cell fate. In the current example, the HD-DOE method was applied with the intent to find conditions for induction of midbrain neural progenitor-expressed genes, directly from the pluripotent stem cell state.
To develop the recipe for each stage, the impact of agonists and antagonists of multiple signaling pathways (referred to herein as “effectors”) on the expression of two sets of 53 pre-selected genes after a 3-day treatment was tested and modeled. These effectors are small molecules or proteins that are commonly used during stepwise differentiation of stem cells to specific fates. The choice of the effectors to test was based on current literature on neural induction in the midbrain region of the developing brain and differentiation of stem cells to neural progenitors.
To test the effectors, experiments with at least 8 factors were designed that can assess the response of cells to 48 or more different combinations of effectors in a range of concentrations. To analyze the models, we focused on expression of genes expressed in the midbrain region, including OTX2, DMBX1, FOXA2, LMX1A, and on the absence of GBX2, which is a hindbrain marker. The impact of each effector on gene expression level is defined by a parameter called factor contribution that is calculated for each effector during the modeling.
To identify the recipe of stage 1 of differentiation, cells were treated with various effectors for 3 days and the gene expression of cells was modeled. […] This model consisted of 13 factors including LDN193189, PD173074, BLU9931, Purmorphamine, SC79, MK2206, ZM336372, PD0325901, CHIR99021, XAV939, UCLA-gp130, Tofacitinib and GO 6983.
as §2
In the stage 1 recipe, each of the five finalized factors were removed while the other four factors were present and the expression levels of OTX2, DMBX1, FOXA2 and LMX1A was assessed compared to the levels in the presence of all five factors (FIG. 11A-B). […] Expression level of DMBX1 increased in absence of LDN193189, however values of OTX2, FOXA2 and LMX1A decreased.

[4] = tested on: stage 2 neural progenitors; experiment: HD-DoE 12-factor model for stage 3 recipe (FIG. 19-23, 29); assay type: cell-based, human
Description: To develop the neuronal differentiation recipes, the impact of various agonist and antagonists (effectors) on maturation of MB neural progenitors was investigated using the HD-DoE method described in Example 1. These effectors were chosen based on available literature on developmental biology, differentiation of stem cells as well as mouse and human single cell RNA-seq data from midbrain neurons at the time.
To engineer the recipe of stage 3 of differentiation, cells were first cultured in the stage 1 and stage 2 media as described herein, then they were treated with combinations of 8 or 12 factors for 3 days and the gene expression of cells in each condition was modeled. To guide the cells towards a subtype of midbrain dopaminergic neurons that reside in Substantia Nigra pars compacta (SNc) region of the brain, neural progenitors need to be SOX6^+ (Pereira et al. (2021) Cell Rep. 37:109975 Oosterveen et al. (2021) Stem Cell Reports 16:2718-2735 Poulin et al. (2020) Trends Neurosci. 43:155-169). CORIN, NGN2 and MSX1 are other markers involved in neurogenesis of dopaminergic neurons originating from floorplate region of developing midbrain (Wang et al. (2020) Cells 9:1489; Samata et al. (2016) Nat Commun. 7:13097; Ono et al. (2007) Development 134:3213-3225; Prakash et al. (2006) J. Physiol. 575:403410).
Therefore, we focused on maximizing expression of SOX6, CORIN, NGN2 and MSX1 in modeling experiments. One of the 12-factor models, the results of which are shown in FIG. 19, including LDN193189, AGN193109, BMP7, TTNPB, PD0325901, A8301, MHY1485, CHIR99021, XAV939, SANT-1, Purmorphamine and MK2206, provided a combination set that could maximize expression level of CORIN to more than 2000.
as §1
In the stage 3 recipe, each of the finalized factors were removed in their respective models while other factors were present and the expression level of genes of interest was assessed compared to presence of all factors. When AGN193109 was excluded, level of all CORIN, KCNJ6, MSX1 and SOX6 decreased from 900 to 450, 50 to 35, 140 to 110 and 105 to 60, respectively. […] When PD0325901 was removed, expression levels of CORIN and KCNJ6 increased to 1200 and 70 while levels of MSX1 and SOX6 decreased to 105 and 20. In the absence of CHIR99021, the expression level of CORIN was again increased to 1200 while the level of KCNJ6 and MSX1 dropped to 50 and 115. […] Therefore, it was decided to include this compound in the final recipe. […] Therefore, CHIR99021 was also included in the final recipe.

[5] = model optimized for maximum expression of FOXA2, positive impact

`NCCc1ccc(O)c(O)c1` [Dopamine] was tested, and the “impact on expression of NR4A2” value (stage 3 immature neurons) was “positive regulatory impact”, the “expression level of PITX3 in absence of the factor” value (from here on “expression level of PITX3”) (stage 3 immature neurons) was 20 and the “expression level of NR4A2 in absence of the factor” value (“expression level of NR4A2” below) (stage 3 immature neurons) was roughly 0.

`CC(C)(Sc1ccc(CCN(CCCCC2CCCCC2)C(=O)NC2CCCCC2)cc1)C(=O)O` [GW7647] was tested, and the “impact on expression of NR4A2” value (stage 3 immature neurons) was “positive regulatory impact”, the “expression level of PITX3” value (stage 3 immature neurons) was “lower expression levels” and the “expression level of NR4A2” value (stage 3 immature neurons) was “lower expression levels”.

With `NC1(c2ccc(-c3nc4ccn5c(=O)[nH]nc5c4cc3-c3ccccc3)cc2)CCC1` [MK2206] the “impact on GBX2” value [1] was “desirable impact”, the “impact on expression of FOXA2” value [1] was “desirable impact; also recorded: positive impact” and the “impact on expression of LMX1A” value [1] was “decreases”. For the same molecule, the factor contribution [1, 5] was 14.2, the factor contribution ([1]; model optimized for maximum expression of LMX1A, positive impact) was 12 and the “level of FOXA2 in absence of the factor” value [1] was “reduced”. The “level of LMX1A in absence of the factor” value [1] was “increasing”, the “impact on expression of FOXA2” value [2] was “positive impact” and the “impact on expression of OTX2” value ([3]; dynamic profile, 13 effectors) was “positive impact”. The factor contribution ([3]; model optimized for maximum expression of OTX2, positive impact, 3-day treatment) was 22.3, the “expression level of LMX1A in absence of the factor” value ([3]; stage 1 recipe, other four factors present, 300 with all five factors) was “stayed the same” and the “expression level of FOXA2 in absence of the factor” value ([3]; stage 1 recipe, other four factors present, 600 with all five factors) was “stayed the same”. The “expression level of DMBX1 in absence of the factor” value ([3]; stage 1 recipe, other four factors present, 3000 with all five factors) was 1500 and the “expression level of OTX2 in absence of the factor” value ([3]; stage 1 recipe, other four factors present, 12000 with all five factors) was 9500.

Work on `CN(CCOc1ccc(CC2SC(=O)NC2=O)cc1)c1ccccn1` (stereo not drawn) [Rosiglitazone] yielded a factor contribution (stage 3 immature neurons; model maximized for NR4A2, negative impact) of 13.6.

In the case of `COc1cccc(Oc2cccc3nc(Nc4ccc(C(C)C)cc4)nc(N)c23)c1` [Yhhu 3792], the “impact on GBX2” value [1] is reported as “positive effect”, the “impact on expression of LMX1A” value [1] is reported as “considerable negative effect” and the factor contribution ([1]; model optimized for LMX1A, negative impact) is reported as 11.7.

For heparin, the “impact on expression of NR4A2” value (stage 3 immature neurons) was “positive regulatory impact”, the “expression level of PITX3” value (stage 3 immature neurons) was 30 and the “expression level of NR4A2” value (stage 3 immature neurons) was “did not significantly change”.

B1: BMP7: BMP agonist (protein, UniProt P18075 293-431, looked up)
Bone morphogenetic protein 7: STGSKQRSQNRSKTPKNQEALRMANVAENSSSDQRQACKKHELYVSFRDLGWQDWIIAPEGYAAYYCEGECAFPLNSYMNATNHAIVQTLVHFINPETVPKPCCAPTQLNAISVLYFDDSSNVILKKYRNMVVRACGCH
With B1 the factor contribution ([4]; model maximizing expression of CORIN, positive regulatory impact) was “high positive factor contributions”, the factor contribution ([4]; model optimized for maximum expression of KCNJ6, positive regulators) was “low factor contributions” and the factor contribution ([4]; model optimized for maximum expression of MSX1, positive impact) was 11.1 and 11.06. For the same molecule, the “expression level of KCNJ6 in absence of the factor” value ([4]; stage 3 recipe, other factors present, 50 with all factors) was “did not have a significant change”, the “expression level of SOX6 in absence of the factor” value ([4]; stage 3 recipe, other factors present, 105 with all factors) was “did not have a significant change” and the “expression level of MSX1 in absence of the factor” value ([4]; stage 3 recipe, other factors present, 140 with all factors) was 100. For the same molecule, the “expression level of CORIN in absence of the factor” value ([4]; stage 3 recipe, other factors present, 900 with all factors) was 500, the “impact on expression of FOXA2” value [1] was “significant positive impact” and the “impact on expression of LMX1A” value [1] was “did not reduce”. For the same molecule, the factor contribution [1, 5] was 13.7, the “level of FOXA2 in absence of the factor” value [1] was 0 and the “level of LMX1A in absence of the factor” value [1] was “increasing”.
